US20260216112A1, “ACETYLCYSTEINE-STABILIZED GOLD NANOCLUSTERS FOR ACUTE KIDNEY INJURY, AND PREPARATION METHOD AND APPLICATION THEREOF” (priority 2021, published 2026)

Assays:
[1] = hydroxyl radical antioxidant capacity (HORAC) kit; assay type: biochemical; conditions: concentration of 100 μg/mL; FIG. 4
[2] = superoxide anion removal, SOD assay kit; assay type: biochemical; conditions: concentration of 100 μg/mL; FIG. 5
Description: The efficiency of Au NCs-NAC in removing superoxide anions at different concentrations ([…]) was determined using the SOD assay kit (Sigma-Aldrich, USA). The test was conducted according to the instructions provided by the manufacture.

[3] = ABTS free radical cation discoloration method; assay type: biochemical; conditions: concentration of […] (so in the source); absorbance at 734 nm; FIG. 6
Description: The test for eliminating ABTS (2,2′-azino-bis(3-ethylbenzothiazoline-6-sulfonic acid)) free radicals by Au NCs-NAC.
The free radicals eliminating ability of Au NCs-NAC was tested using the ABTS free radical cation discoloration method. ABTS (7 mM) was dissolved in water, and 2.45 mM potassium persulfate was added to react for 12 hours to produce ABTS free radical cations (⋅ABTS+). Then, the absorbance values of the pure ⋅ABTS+solution (AB) and the mixed solution of different concentrations (12.5-100 μg/mL) of Au NCs-NAC and ⋅ABTS+ were measured at 734 nm. The formula for calculating ABTS eliminating efficiency is [(AB AP)/AB]*100. All measurements were performed in triplicate.

[4] = tested on: TNF-α; assay: in vitro anti-inflammatory study, TNF-α ELISA; assay type: cell-based; conditions: LPS 400 ng/ml stimulation, RAW264.7 macrophage supernatant, FIG. 9
Excerpt: (§1) Embodiment 3: Au NCs-NAC cytotoxicity and protection of kidney cells by eliminating various reactive oxygen species/reactive nitrogen species, and the standard MTT method was used to evaluate the effect of Au NCs-NAC on the survival rate of 293T renal embryonic cells. Furthermore, ELISA (enzyme-linked immunosorbent assay) kits for TNF-α and IL-6 are adopted to evaluate the levels of inflammatory factors in the cells.
(§2) For in vitro anti-inflammatory studies, both macrophages and 293T renal embryonic cells were seeded into 96-well plates. Then, 293T renal embryonic cells were treated with 400 ng/ml lipopolysaccharide (LPS) for 1 h. Then, the supernatant of 293T renal embryonic cell culture was transferred to a 96-well plate to culture RAW264.7 macrophages overnight. Finally, the TNF-α/IL-6 ELISA kit was used to detect the concentrations of TNF-α and IL-6 in the RAW264.7 macrophage supernatant.

[5] = tested on: IL-6; assay: in vitro anti-inflammatory study, IL-6 ELISA; assay type: cell-based; conditions: LPS 400 ng/ml stimulation, RAW264.7 macrophage supernatant, FIG. 10
Excerpt: as §1, §2

[6] = tested on: glycerol-induced acute renal failure mice; assay: glycerol-induced acute renal failure mice, serum creatinine and blood urea nitrogen; assay type: in vivo; conditions: 4 mg/kg injected 2 hours after glycerol, serum at 24 hours, versus phosphate buffer
Description: All experimental operations were performed in accordance with the animal use and care system approved by the Clinical Center Animal Care and Use Committee. Female athymic mice (six weeks, 20-25 g) were injected with 8 mL/kg 50% glycerol solution intramuscularly into the hind legs to establish a mice model of acute renal failure. After 2 hours, the small molecule drug acetylcysteine or Au NCs-NAC was injected.
Mice were randomly divided into 5 groups: (1) healthy mice injected with phosphate buffer; (2) healthy mice injected with Au NCs-NAC; (3) glycerol-induced acute renal failure mice injected with phosphate buffer; (4) glycerol-induced acute renal failure mice injected with Au NCs-NAC; (5) glycerol-induced acute renal failure mice injected with acetylcysteine in the same dose of Au NCs-NAC. Healthy mice and mice with glycerol-induced acute renal failure were euthanized 24 hours later. The blood of the mice was centrifuged to obtain serum, and the creatinine and blood urea nitrogen contents were measured. The phosphate buffer used for injection was 100 μL, the injection dose of Au NCs-NAC was 4 mg/kg, and the injection dose of acetylcysteine was 4 mg/kg.

## CC(=O)N[C@@H](CS)C(=O)O [acetylcysteine]
[1]
  hydroxyl radicals eliminated: 47.2%
[2]
  superoxide anions eliminated: 6%
[3]
  ⋅ABTS+ eliminated (ABTS eliminating efficiency): 68.9%
[4]
  production of inflammatory factor TNF-α: not able to achieve the same
[5]
  production of inflammatory factor IL-6: not able to achieve the same
[6]; FIG. 11
  serum blood urea nitrogen level: cannot effectively reduce
[6]; FIG. 12
  serum creatinine level: cannot effectively reduce
